Reference: patent US9783838B2, “PmST3 enzyme for chemoenzymatic synthesis of alpha-2-3-sialosides” (The Regents of the University of California, priority 2012, dated 2017)
Where two headings read alike, the source gives them in different places.

Experiments:
PmST3Δ35-His6 [1] = molecular target: T1, PmST3Δ35-His6 (Pasteurella multocida, UniProt Q9CLP3); assay: Acceptor substrate specificity of PmST3Δ35-His6; type: biochemical; conditions: acceptor 2 mM, CMP-Neu5Ac 2 mM, 37° C., pH 7.5
Experimental: All reactions were carried out in duplicate at 37° C. in Tris-HCl (200 mM, pH 7.5) containing an acceptor substrate (2 mM), CMP-Neu5Ac (2 mM), and PmST3Δ35-His6 (0.25 μg μl^−1). At 10 min or 4 hr, aliquots of reaction mixture were withdrawn and added to pre-chilled acetonitrile:water (20:80) (for reactions with acceptors containing 2-aminobenzoic acid (2AA) or 4-methylumbelliferone (MU) aglycone) or pre-chilled 95% ethanol (for reactions with acceptor containing Pro-triazole-C14 or pNP aglycone) and samples were kept on ice until being analyzed. Samples with acceptors containing 2AA (315 nm excitation and 400 nm emission) or MU (326 nm excitation and 372 nm emission) were analyzed by HPLC equipped with a fluorescent detector. Samples with acceptor containing Pro-triazole-C14 (214 nm) or pNP (300 nm) aglycone were centrifuged at 13,000 rpm for 5 min and analyzed by capillary electrophoresis (CE) equipped with a photodiode array (PDA) detector as described previously using sodium borate buffer (50 mM, pH 10.2) containing β-cyclcodextrin (20 mM) as a running buffer (Glycobiology, 21:1206-1216).

PmST1 [2] = molecular target: T2, PmST1 (Pasteurella multocida, UniProt Q15KI8); conditions: cited from earlier work
PmST2 [3] = conditions: cited from earlier work
CstI = conditions: truncated monofunctional α2-3-sialyltransferase CstI; cited from earlier work
[4] = test system: CC(=O)N[C@H]1[C@H]([C@H](O)[C@H](O)CO)O[C@](OP(=O)(O)OC[C@H]2O[C@@H](n3ccc(N)nc3=O)[C@H](O)[C@@H]2O)(C(=O)O)C[C@@H]1O; assay: purified protein, by the assay type; conditions: other: apparent, 37° C., Tris-HCl pH 7.5, other substrate fixed at 1 mM
Experimental: Reactions were carried out in duplicate at 37° C. for 7 min in a total volume of 10 μl in a Tris-HCl buffer (200 mM, pH 7.5).

PmST3Δ35-His6 [5] = molecular target: T1, PmST3Δ35-His6; type: biochemical
Experimental: For metal effects, various concentrations (1, 5, 10, or 20 mM) of MgCl2 or MnCl2 were used. Ethylenediaminetetraacetic acid (EDTA) as a chelating agent was used at two concentrations (1 or 10 mM). A reducing reagent dithiothreitol (DTT) was used at two concentrations (1 or 10 mM). Reaction without metal ions, EDTA, or DTT was used as a control. The reaction was quenched by adding 490 μl of pre-chilled acetonitrile:water (20:80). Samples were kept on ice until being analyzed by HPLC equipped with a fluorescent detector (315 nm excitation and 400 nm emission).

PmST2 [6] = conditions: up to 20 mM; cited from earlier work
PmST1 [7] = molecular target: T2, PmST1; conditions: cited from earlier work; remark: listed apart in the source
[8] = pH profile of α2-3-sialyltransferase activity; type: biochemical
Experimental: pH profile of PmST3Δ35-His6. Reactions were carried out in duplicate at 37° C. for 10 min. […] Buffers used were: MES-KOH (pH 4.0-6.5), Tris-HCl (pH 7.0-9.0), and CHES (pH 10.0). Enzymatic reaction was quenched by adding 490 μl of pre-chilled acetonitrile:water (20:80) mixture. The samples were kept on ice until being analyzed by a Shimadzu LC-2010A HPLC system equipped with a membrane on-line degasser, a temperature control unit, and a fluorescence detector (the excitation wavelength was set at 315 nm and the emission wavelength was set at 400 nm) using a reverse phase Premier C18 column (250×4.6 mm I.D., 5 μm particle size, Shimadzu) protected with a C18 guard column cartridge. Mobile phase used was 20% acetonitrile in water.

[9] = Storage stability of purified truncated PmST3 proteins; type: physicochemical
Experimental: To further improve the expression of the soluble and active protein, three C-terminal truncated versions of PmST3 (PmST3Δ20-His6, PmST3Δ35-His6, and PmST3Δ45-His6 with the removal of C-terminal 20, 35, and 45 amino acid residues) were cloned into pET22b(+) vector as C-His6 (SEQ ID NO:37) tagged fusion proteins. […] For PmST3Δ45-His6, the expression of soluble protein was improved to the level of MBP fusion protein (4 mg of purified protein from 1 liter of cell culture by Ni^2+-NTA affinity chromatography). However, PmST3Δ45-His6 seemed to have stability issues. […] Under the same expression conditions, purified PmST3Δ35-His6 can be routinely obtained at a level of 29 mg from cell lysate from one liter of cell culture.

[10] = Comparison of three Pasteurella multocida sialyltransferases (activities and acceptor use); type: biochemical

With `Cc1cc(=O)oc2cc(O[C@@H]3O[C@H](CO)[C@@H](O[C@@H]4O[C@H](CO)[C@H](O)[C@H](O)[C@H]4O)[C@H](O)[C@H]3O)ccc12` [LacβMU, 4-methylumbelliferyl β-lactoside] the “% Conv. (10 min)” value (PmST3Δ35-His6 [1]) was 29.9 ± 1.2% and the “% Conv. (4 h)” value (PmST3Δ35-His6 [1]) was 65.6 ± 1.6%.

In the case of `O=[N+]([O-])c1ccc(O[C@@H]2O[C@H](CO)[C@H](O)[C@H](O)[C@H]2O)cc1` [GalβpNP, p-nitrophenyl β-galactoside], the “% Conv. (10 min)” value (PmST3Δ35-His6 [1]) is reported as <1% and the “% Conv. (4 h)” value (PmST3Δ35-His6 [1]) is reported as 9.4 ± 0.4%.

For `CC(=O)N[C@H]1[C@H]([C@H](O)[C@H](O)CO)O[C@](OP(=O)(O)OC[C@H]2O[C@@H](n3ccc(N)nc3=O)[C@H](O)[C@@H]2O)(C(=O)O)C[C@@H]1O` [CMP-Neu5Ac, Cytidine 5′-monophosphate N-acetylneuraminic acid], the Km (PmST1 [2]) is listed as 440 µM, the Km (PmST2 [3]) is listed as 1300 ± 100 µM and the Km (CstI) is listed as 400 µM.

Molecule “PmST3Δ35-His6 (Pasteurella multocida subsp. multocida str. Pm70)” has a Km [4] of 260 ± 10 µM, a Vmax [4] of 44 µM/min and a kcat [4] of 0.122 ± 0.00167 s⁻¹. The kcat/Km [4] was 467 M⁻¹ s⁻¹.

In the case of `[Cl-].[Cl-].[Mg+2]` [MgCl2], the “effect on enzyme activity” value (PmST3Δ35-His6 [5]; MnCl2 or MgCl2 up to 20 mM) is listed as “did not affect” and the “effect on enzyme activity” value (PmST2 [6]) is listed as “did not affect”.

For `O=C(O)CN(CCN(CC(=O)O)CC(=O)O)CC(=O)O` [EDTA, Ethylenediaminetetraacetic acid], the “effect on enzyme activity” value (PmST3Δ35-His6 [5]; EDTA up to 10 mM) was “did not affect”.

In the case of `[Cl][Mn][Cl]` [MnCl2], the “effect on enzyme activity” value (PmST3Δ35-His6 [5]; MnCl2 or MgCl2 up to 20 mM) is listed as “did not affect”, the “effect on enzyme activity” value (PmST2 [6]) is listed as “did not affect” and the “effect on α2-3-sialyltransferase activity” value (PmST1 [7]; 5 mM or 10 mM) is listed as “decreased”. For the same molecule, the “effect on α2-3-sialyltransferase activity” value (PmST1 [7]; 20 mM) was “almost abolished”.

For `O[C@H](CS)[C@H](O)CS` (racemic) [DTT, dithiothreitol], the “effect on enzyme activity” value (PmST3Δ35-His6 [5]; DTT 1 or 10 mM) was “Change of activity was not observed”.

B1: PmST3Δ35-His6: C-terminal 35 residue truncated, C-His6 tagged PmST3 α2-3-sialyltransferase, SEQ ID NO: 11 (protein)
chain: MDKFAEHEIPKAVIVAGNGESLSQIDYRLLPKNYDVFRCNQFYFEERYFLGNKIKAVFFTPGVFLEQYYTLYHLKRNNEYFVDNVILSSFNHPTVDLEKSQKIQALFIDVINGYEKYLSKLTAFDVYLRYKELYENQRITSGVYMCAVAIAMGYTDIYLTGIDFYQASEENYAFDNKKPNIIRLLPDFRKEKTLFSYHSKDIDLEALSFLQQHYHVNFYSISPMSPLSKHFPIPTVEDDCETTFVAPLKENYINDILLPPHFVYEKLGVDKLAAALEHHHHHH
modifications: synthetic C-terminal truncated Pasteurella multocida sialyltransferase 3 (PmST3, Pm1174) C-His-6 tagged fusion protein PmST3delta35-His-6
For B1, the “optimal pH range for α2-3-sialyltransferase activity” value ([8]; LacβPro2AA as acceptor) was 6.5-9.0, the “activity outside the optimal pH range” value ([8]; pH below 6.0 or 10.0) was “decreased dramatically” and the “storage stability (activity)” value ([9]; after 3 months of storage in 10% glycerol and 25 mM Tris-HCl (pH 7.5) buffer) was “remained active”. The “Use galactosyl glycolipids as acceptors” value [10] was “Yes”, the “Use galactosyl oligosaccharides as acceptors” value [10] was “Yes” and the α2-3-sialidase activity [10] was “No”. The α2-3-sialyltransferase activity [10] was “Yes”, the α2-3-trans-sialidase activity [10] was “No” and the α2-6-sialyltransferase activity [10] was “No”.

B2: PmST3Δ45-His6: C-terminal 45 residue truncated, C-His6 tagged PmST3, SEQ ID NO: 12 (protein)
chain: MDKFAEHEIPKAVIVAGNGESLSQIDYRLLPKNYDVFRCNQFYFEERYFLGNKIKAVFFTPGVFLEQYYTLYHLKRNNEYFVDNVILSSFNHPTVDLEKSQKIQALFIDVINGYEKYLSKLTAFDVYLRYKELYENQRITSGVYMCAVAIAMGYTDIYLTGIDFYQASEENYAFDNKKPNIIRLLPDFRKEKTLFSYHSKDIDLEALSFLQQHYHVNFYSISPMSPLSKHFPIPTVEDDCETTFVAPLKENYINDILLVDKLAAALEHHHHHH
modifications: synthetic C-terminal truncated Pasteurella multocida sialyltransferase 3 (PmST3, Pm1174) C-His-6 tagged fusion protein PmST3delta45-His-6
For B2, the “storage stability (precipitation)” value ([9]; after 3 days of storage at 4° C. after dialysis against 10% glycerol and 25 mM Tris-HCl, pH 7.5) was “Precipitation was observed”.
